{"source": "patent US10059636B2", "about": "“Pesticide product including polyanionic polymers” (Verdesian Life Sciences, LLC, priority 2013, dated 2018)", "system": "cotton", "assay": "Phosphorous fixation field test with DAP on cotton", "format": "in vivo", "details": "for % by weight Phosphorous in Tissue: cotton tissue prior to first bloom", "source_text": "In a field test, two rates of phosphorous as diammonium phosphate (DAP) were broadcast-applied as a pre-plant fertilizer to a cotton field, namely 65 lbs of DAP per acre and 130 lbs of DAP per acre. The tests were two replications each of an unfertilized control, a DAP-only control, and DAP mixed with 0.25% w/w of a Class I polymer formulation. The formulation included 40% w/w of a partial zinc/sodium salt of T5 polymer, 5% w/w zinc, and the balance water, pH about 3,\nTissue tests were taken prior to first bloom from each plot, and the percent of phosphorous in the plant tissue was measured. After harvesting, lint yields were measured."}
{"smiles": "N.N.O=P(O)(O)O", "note": "[DAP, diammonium phosphate]", "values": [{"measurement": "Lint Yield", "setting": "65 lbs of DAP per acre", "value": 712, "unit": "lbs/acre"}, {"measurement": "% by weight Phosphorous in Tissue", "setting": "65 lbs of DAP per acre", "value": 0.41, "unit": "% by weight"}, {"measurement": "Lint Yield", "setting": "130 lbs of DAP per acre", "value": 781, "unit": "lbs/acre"}, {"measurement": "% by weight Phosphorous in Tissue", "setting": "130 lbs of DAP per acre", "value": 0.41, "unit": "% by weight"}]}
